Test results published in ChEMBL document CHEMBL5376003, “Structure-Activity Relationship of FL118 Platform Position 7 Versus Position 9-Derived Compounds and Their Mechanism of Action and Antitumor Activity” (J Med Chem, 2023).

Legend:
Format in all cases: functional, cell-based
[1] = test system: HeLa; assay: Growth inhibition of human HeLa cells incubated for 48 hrs by MTT reagent based ELISA reader analysis
[2] = test system: A549; assay: Growth inhibition of human A549 cells incubated for 48 hrs by MTT reagent based ELISA reader analysis; conditions: A549, 48 h
[3] = test system: MCF7; assay: Growth inhibition of human MCF7 cells incubated for 48 hrs by MTT reagent based ELISA reader analysis; conditions: MCF7, 48 h
[4] = test system: HepG2; assay: Growth inhibition of human HepG2 cells incubated for 48 hrs by MTT reagent based ELISA reader analysis; conditions: HepG2, 48 h
[5] = test system: HCT-116; assay: Growth inhibition of human HCT-116 cells incubated for 48 hrs by MTT reagent based ELISA reader analysis; conditions: HCT-116, 48 h
[6] = test system: HCT-116; assay: Induction of apoptosis in human HCT-116 cells assessed as increase in intracellular ROS level incubated for 48 hrs by DCFH-DA staining based fluorescence microscopy

Structure (SMILES) | IC50 [1] [nM] | IC50 [2] [nM] | IC50 [3] [nM] | IC50 [4] [nM] | IC50 [5] [nM] | Activity [6]
CC[C@@]1(O)C(=O)OCc2c1cc1n(c2=O)Cc2c-1nc1cc3c(cc1c2-c1ccc([Si](C)(C)C)cc1)OCO3 | > 1000 | 321 | 863 | 74 | 56.3 | 
CC[C@@]1(O)C(=O)OCc2c1cc1n(c2=O)Cc2c-1nc1cc3c(cc1c2-c1ccc(C(C)C)cc1)OCO3 | 61.4 | 52 | 122 | 825 | 400 | 
CCCc1ccc(-c2c3c(nc4cc5c(cc24)OCO5)-c2cc4c(c(=O)n2C3)COC(=O)[C@]4(O)CC)cc1 | 59.4 | 51 | 64 | 827 | 118 | 
CC[C@@]1(O)C(=O)OCc2c1cc1n(c2=O)Cc2c-1nc1cc3c(cc1c2-c1ccc(OC(C)C)cc1)OCO3 | 506 | 142 | 52.8 | 160 | < 6.4 | 
CCc1ccc(-c2c3c(cc4nc5c(cc24)Cn2c-5cc4c(c2=O)COC(=O)[C@]4(O)CC)OCO3)cc1 | > 1000 | 265 | > 1000 | > 1000 | 697 | 
CCCCc1ccc(-c2c3c(nc4cc5c(cc24)OCO5)-c2cc4c(c(=O)n2C3)COC(=O)[C@]4(O)CC)cc1 | 115 | 54.9 | 60.5 | > 1000 | 513 | 
CC[C@@]1(O)C(=O)OCc2c1cc1n(c2=O)Cc2cc3c(-c4cc(OC)c(OC)c(OC)c4)c4c(cc3nc2-1)OCO4 | 140 | 1000 | 757 | 952 | 136 | 
CC[C@@]1(O)C(=O)OCc2c1cc1n(c2=O)Cc2c-1nc1cc3c(cc1c2-c1cccc(SC)c1)OCO3 | 125 | 132 | 34.6 | 78.6 | 46.1 | 
CCCCOc1ccc(-c2c3c(cc4nc5c(cc24)Cn2c-5cc4c(c2=O)COC(=O)[C@]4(O)CC)OCO3)cc1 | 593 | 616 | 344 | 569 | 782 | 
CC[C@@]1(O)C(=O)OCc2c1cc1n(c2=O)Cc2c-1nc1cc3c(cc1c2-c1ccc(C)c(C)c1)OCO3 | 364 | 22.1 | 45.3 | 64 | 22.3 | 
CC[C@@]1(O)C(=O)OCc2c1cc1n(c2=O)Cc2cc3c(-c4cccc(OC)c4)c4c(cc3nc2-1)OCO4 | > 1000 | 990 | > 1000 | > 1000 | > 1000 | 
CC[C@@]1(O)C(=O)OCc2c1cc1n(c2=O)Cc2cc3c(-c4ccc(C(C)(C)C)cc4)c4c(cc3nc2-1)OCO4 | 674 | 910 | > 1000 | > 1000 | > 1000 | 
CC[C@@]1(O)C(=O)OCc2c1cc1n(c2=O)Cc2c-1nc1cc3c(cc1c2-c1cc(OC)c(OC)c(OC)c1)OCO3 | 200 | 140 | 101 | 738 | 39.6 | 
CC[C@@]1(O)C(=O)OCc2c1cc1n(c2=O)Cc2c-1nc1cc3c(cc1c2-c1cccc(OC(C)C)c1)OCO3 | 143 | 400 | 64.1 | 1000 | 793 | 
CC[C@@]1(O)C(=O)OCc2c1cc1n(c2=O)Cc2c-1nc1cc3c(cc1c2-c1ccc(SC)cc1)OCO3 | 58.7 | 27.3 | 53.4 | 51.9 | 61.8 | 
CC[C@@]1(O)C(=O)OCc2c1cc1n(c2=O)Cc2cc3c(-c4cccc(OC(C)C)c4)c4c(cc3nc2-1)OCO4 | 161 | 149 | 149 | 161 | 183 | 
CCCCc1ccc(-c2c3c(cc4nc5c(cc24)Cn2c-5cc4c(c2=O)COC(=O)[C@]4(O)CC)OCO3)cc1 | > 1000 | 541 | > 1000 | > 1000 | 759 | 
CCCOc1ccc(-c2c3c(cc4nc5c(cc24)Cn2c-5cc4c(c2=O)COC(=O)[C@]4(O)CC)OCO3)cc1 | 532 | 1000 | > 1000 | > 1000 | 564 | 
CC[C@@]1(O)C(=O)OCc2c1cc1n(c2=O)Cc2cc3c(-c4ccc(C(F)(F)F)cc4)c4c(cc3nc2-1)OCO4 | > 1000 | 803 |  | > 1000 | 934 | Dose-Dependent Effect
CC[C@@]1(O)C(=O)OCc2c1cc1n(c2=O)Cc2cc3c(-c4ccc(C(C)C)cc4)c4c(cc3nc2-1)OCO4 | > 1000 | 765 | 800 | > 1000 | > 1000 | 
